One data set concerns the target JAK1-JH1JH2 (Homo sapiens (Human), UniProt P23458). Put plainly: Enzymatic inhibition assay (HTMS). Type of data set: biochemical. The settings on record: 12.5 μM ATP; read-out: JAK1_JH1JH2 IC50. An excerpt: (§1) JAK1-JH1JH2 (574-1154 with a His-GST Tag and a C-terminal tev (ENLYFQ-G) cleavage site), JAK3-JH1JH2 (512-1124 with a GST Tag and a C-terminal tev (ENLYFQ-G) cleavage site), and Tyk2-JH1JH2 (8H_tev_580-1182-C936A-C1142A with a C-terminal tev (ENLYFQ-G) cleavage site) were purified internally. […] LC/MS grade water and acetonitrile (ACN), were purchased from HoneyWell, Burdick & Jackson (Muskegon, Mich., USA). Dimethylsulfoxide 99.8% (DMSO) and trifluoroacetic acid 99.5% (TFA) were purchased from EMD Chemical (Gibbstown, N.J., USA). Adenosine triphosphate (ATP), 4-morpholinepropanesulfonic acid (MOPS), magnesium chloride (MgCl2), ethylenediaminetetraacetic acid (EDTA), dithiothreitol (DTT), formic acid>95% (FA) and Tween-20 were purchased from Sigma (St Louis, Mo., USA). 384-well polypropylene plates, Cat#781280 were purchased from Greiner (Monroe, N.C.), RapidFire™ cartridge A C4 Column (Agilent Technologies, Santa Clara, Calif.).
(§2) The HTMS experiments were performed in positive ionization mode on a RapidFire 300 instrument (Agilent Technologies, Santa Clara, Calif.), coupled with an ABSiex QTrap 4000 system with an Electrospray Ionization source (RF-MS) (Concord, ON, Canada). […] The entire system was operated using the RapidFire software interfaced with Analyst software for the mass spectrometer.
(§3) 11-point dosing series were made for each compound by serially diluting 1:3 or 1:4 in DMSO, with point 12 being a DMSO control. From the serial dilution plates, sample was transferred to a 384 wells assay plate (#781280, Greiner, Monroe, N.C.) using Labcyte Echo (Sunnyvale, Calif.), or Biosero ATS (San Diego, Calif.). The compounds were tested in duplicate. Column 12 was used for positive controls, and column 24 contained negative controls with no enzyme added. A compound from our internal collection, with inhibitory activity for JAK isoforms, was used as a reference compound. The final concentration of DMSO was ≤0.25% in a 20 μL reaction. The enzyme reaction was initiated by the addition of 10 μL of enzyme and ATP mixture to 10 μL of substrate solution prepared in reaction buffer (50 mM MOPS pH 7.5, 10 mM MgCl2, 1 mM EDTA, 2 mM DTT, 0.002% Tween-20). The Tyk2 enzyme was pre-incubated with 2 mM ATP for 30 min prior to the reaction initiation. Immediately after the addition of the enzyme to the reaction mixture, the plate was centrifuged at 1000 rpm for 1 minute and incubated at 25° C. for 45 minutes for JAK3 and 90 minutes for JAK1, JAK2 and Tyk2. The reaction was quenched by the addition of 20 μL of 0.5% TFA containing 0.15 μM of internal standard peptide using Multidrop Combi reagent dispenser (Thermo Scientific, Waltham, Mass.). […] After the quench, the assay plate was centrifuged at 3000 rpm for 3 minutes and sealed with pierceable aluminum foil (Cat#06644-001, Agilent) using a PlateLoc (Agilent Technologies, Santa Clara, Calif.). The plates then were transferred on to the RapidFire for the MS analysis. Compound inhibition was assessed by a decrease of the phosphorylated product levels in sample wells compared to the non-inhibited enzyme reaction.
(§4) The sample analysis on the RapidFire was performed using a mobile phase A1 consisting of Water/TFA/FA (100:0.01:0.1, v/v/v), a mobile phase B1 consisting of ACN/Water/TFA/FA (80:20:0.01:0.1, v/v/v). […] The samples were aspirated directly from the 384-well assay plate and delivered onto RF-MS microscale solid-phase C4 extraction cartridge (Type A). The undesired component such as salt, cofactor, detergent and large protein were washed out and the retained analytes (substrate, product and IS) were coeluted directly onto the AB Siex Qtrap 4000 system.

Another data set addresses JAK2-JH1JH2 (Homo sapiens (Human), UniProt O60674). Put plainly: Enzymatic inhibition assay (HTMS). Type of data set: biochemical. The conditions noted are these: 30 μM ATP; read-out: JAK2_I_JH1JH2 IC50.
Excerpt: as §1, §2, §3, §4

The target in the next data set is JAK3-JH1JH2 (Homo sapiens (Human), UniProt P52333). Nature of the data set: Enzymatic inhibition assay (HTMS). The format is biochemical. The settings on record: 150 μM ATP; read-out: JAK3_I_JH1JH2 IC50.
Excerpt: as §1, §2, §3, §4

The target of a further data set is Tyk2-JH1JH2 (Homo sapiens (Human), UniProt P29597, C1142A/C936A). Put plainly: Enzymatic inhibition assay (HTMS). The settings on record: 50 μM ATP; read-out: Tyk2_I_JH1JH2 IC50. Type of data set: biochemical.
Excerpt: as §1, §2, §3, §4

The subject of the next data set is IL-2 pSTAT5 (JAK1/JAK3). Nature of the data set: IL-2 pSTAT5 (JAK1/JAK3) cellular assay, AlphaLISA in PBMCs. Type of data set: cell-based. The conditions noted are these: PBMC, IL-2 5 ng/mL. The protocol:
The AlphaLISA assay (based on Alpha Technology from PerkinElmer) was performed by first plating freshly thawed PBMCs (Biological Specialty Corporation) in 384-well plates at 30,000 cells per 4 μL per well in HBSS (Hanks' Balanced Salt Solution) containing 0.1% IgG (immunoglobulin G)-free, protease-free BSA (bovine serum albumin) (Jackson ImmunoResearch Cat. No. 001-000-161). The cells were then treated with 2 μL/well of compounds diluted in DMSO at half-log titrated concentrations, with a highest test concentration of 10 μM and 0.5% final DMSO concentration, for thirty minutes at 37° C. […] The cellular reactions were terminated by the addition of 2 μL/well of lysis buffer (PerkinElmer Cat. No. ALSU-PST5-A10K) followed by an incubation of five minutes at room temperature. 5 μL/well of acceptor mix (PerkinElmer Cat. No. ALSU-PST5-A10K) was added to the cells and incubated in the dark for one hour at room temperature. Then, 5 μL/well of donor mix (PerkinElmer Cat. No. ALSU-PST5-A10K) was added to the cells and incubated in the dark overnight at room temperature. Finally, the plates were read on a PerkinElmer EnVision for detection of the time-resolved fluorescence signal. The percentage of IL-2-dependent pSTAT5 inhibition was determined at the compound test concentrations; and for each compound, a dose curve was generated and the IC50 was calculated. Compound IC50 was calculated by nonlinear regression, sigmoidal dose response analysis of the half-log dilution titration curve of the compound concentration vs. Alpha signal. The acronym “Alpha” stands for amplified luminescent proximity homogeneous assay; the Alpha signal is a luminescent/fluorescent signal.
(In general: Bead proximity is the source of the signal in Alpha formats.)

The conditions of data set [1]: pH 6.5.

One may read the IC50 as the concentration needed to halve the response being measured.

JAK1-JH1JH2, sequence (P23458 574-1154): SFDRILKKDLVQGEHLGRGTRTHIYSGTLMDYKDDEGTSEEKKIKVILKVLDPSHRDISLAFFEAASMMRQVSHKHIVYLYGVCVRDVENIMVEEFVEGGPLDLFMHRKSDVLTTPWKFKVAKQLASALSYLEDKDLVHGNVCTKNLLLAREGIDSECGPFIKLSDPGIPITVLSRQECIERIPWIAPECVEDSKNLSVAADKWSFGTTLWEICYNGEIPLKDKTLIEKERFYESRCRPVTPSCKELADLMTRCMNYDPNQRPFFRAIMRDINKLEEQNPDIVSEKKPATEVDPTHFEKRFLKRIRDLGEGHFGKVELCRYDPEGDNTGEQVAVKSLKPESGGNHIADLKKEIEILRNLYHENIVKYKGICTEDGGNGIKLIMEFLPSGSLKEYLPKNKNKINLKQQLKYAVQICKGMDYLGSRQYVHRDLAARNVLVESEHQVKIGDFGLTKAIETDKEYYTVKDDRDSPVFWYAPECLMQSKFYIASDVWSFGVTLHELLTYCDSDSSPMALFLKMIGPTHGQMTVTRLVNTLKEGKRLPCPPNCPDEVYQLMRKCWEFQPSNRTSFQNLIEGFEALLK
Tyk2-JH1JH2, sequence (P29597 580-1182 C936A/C1142A): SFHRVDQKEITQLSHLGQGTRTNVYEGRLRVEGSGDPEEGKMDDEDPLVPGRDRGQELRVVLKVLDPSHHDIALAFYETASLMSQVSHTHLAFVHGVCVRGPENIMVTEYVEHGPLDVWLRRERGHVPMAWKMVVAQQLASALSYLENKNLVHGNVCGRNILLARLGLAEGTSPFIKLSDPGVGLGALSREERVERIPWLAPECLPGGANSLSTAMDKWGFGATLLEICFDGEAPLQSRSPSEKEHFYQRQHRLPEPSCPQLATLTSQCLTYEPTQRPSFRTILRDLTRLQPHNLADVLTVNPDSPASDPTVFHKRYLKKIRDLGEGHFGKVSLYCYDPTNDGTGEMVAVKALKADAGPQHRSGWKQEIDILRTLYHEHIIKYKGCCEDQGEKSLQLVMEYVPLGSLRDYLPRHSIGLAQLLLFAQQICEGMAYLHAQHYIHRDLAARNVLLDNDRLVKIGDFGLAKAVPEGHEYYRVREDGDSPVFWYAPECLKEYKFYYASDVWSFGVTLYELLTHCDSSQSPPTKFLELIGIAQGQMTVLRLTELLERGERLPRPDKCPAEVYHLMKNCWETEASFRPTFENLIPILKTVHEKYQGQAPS
JAK3-JH1JH2, sequence (P52333 512-1124): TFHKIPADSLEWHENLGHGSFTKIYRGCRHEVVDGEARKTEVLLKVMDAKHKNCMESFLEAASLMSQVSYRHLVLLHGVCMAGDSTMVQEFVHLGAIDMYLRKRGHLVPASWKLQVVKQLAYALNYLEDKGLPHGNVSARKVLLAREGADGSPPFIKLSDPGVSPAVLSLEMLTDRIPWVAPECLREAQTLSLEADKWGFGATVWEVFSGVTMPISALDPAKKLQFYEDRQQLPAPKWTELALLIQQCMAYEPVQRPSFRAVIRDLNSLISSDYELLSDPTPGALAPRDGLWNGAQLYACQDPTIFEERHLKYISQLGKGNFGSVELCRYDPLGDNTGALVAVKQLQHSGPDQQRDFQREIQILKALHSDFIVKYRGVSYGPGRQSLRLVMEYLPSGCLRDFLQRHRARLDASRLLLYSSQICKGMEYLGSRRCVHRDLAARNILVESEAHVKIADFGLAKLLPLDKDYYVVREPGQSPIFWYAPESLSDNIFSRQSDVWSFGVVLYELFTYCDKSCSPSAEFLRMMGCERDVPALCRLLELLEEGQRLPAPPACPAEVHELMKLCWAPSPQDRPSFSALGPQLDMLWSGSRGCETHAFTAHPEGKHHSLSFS
JAK2-JH1JH2, sequence (O60674 532-1132): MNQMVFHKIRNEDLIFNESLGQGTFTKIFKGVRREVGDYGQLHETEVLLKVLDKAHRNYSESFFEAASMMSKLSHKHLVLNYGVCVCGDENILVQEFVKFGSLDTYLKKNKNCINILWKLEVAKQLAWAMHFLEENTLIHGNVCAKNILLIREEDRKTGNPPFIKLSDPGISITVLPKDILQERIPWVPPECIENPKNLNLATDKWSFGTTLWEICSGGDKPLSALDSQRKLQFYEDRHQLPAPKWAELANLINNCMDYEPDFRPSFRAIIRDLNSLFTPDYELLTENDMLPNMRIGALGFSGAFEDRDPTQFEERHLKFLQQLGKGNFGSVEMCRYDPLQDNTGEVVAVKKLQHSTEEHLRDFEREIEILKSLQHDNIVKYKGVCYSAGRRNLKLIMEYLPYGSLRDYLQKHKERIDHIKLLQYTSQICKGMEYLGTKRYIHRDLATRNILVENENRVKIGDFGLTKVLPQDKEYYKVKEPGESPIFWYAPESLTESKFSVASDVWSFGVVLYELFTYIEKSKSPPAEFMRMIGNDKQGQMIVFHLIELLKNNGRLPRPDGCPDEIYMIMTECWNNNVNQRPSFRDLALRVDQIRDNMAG

For `CC(C)(O)CNC(=O)Cc1nc2cnc3[nH]ccc3c2n1[C@H]1CC[C@H](CC#N)CC1` [Ex. 1, 2-(1-((1r,4r)-4-(Cyanomethyl)cyclohexyl)-1,6-dihydroimidazo[4,5-d]pyrrolo[2,3-b]pyridin-2-yl)-N-(2-hydroxy-2-methylpropyl)acetamide], the IC50 is 0.4 nM on JAK1-JH1JH2; 8.6 nM on JAK2-JH1JH2; 92.2 nM on JAK3-JH1JH2; 7.4 nM on Tyk2-JH1JH2; 21.6 nM with IL-2 pSTAT5 (JAK1/JAK3).

`N#CC[C@H]1CC[C@H](n2c(-c3c[nH]cn3)nc3cnc4[nH]ccc4c32)CC1` [Ex. 2, 2-((1r,4r)-4-(2-(1H-Imidazol-4-yl)imidazo[4,5-d]pyrrolo[2,3-b]pyridin-1(6H)-yl)cyclohexyl)acetonitrile] yielded an SIF solubility in data set [1] above 400 µM. Besides, the results for the IC50 on Tyk2-JH1JH2 and with IL-2 pSTAT5 (JAK1/JAK3) were 1.5 nM and 9 nM, respectively.

With `N#CC[C@H]1CC[C@H](n2c(CC(=O)NCC3CC3)nc3cnc4[nH]ccc4c32)CC1` [Ex. 3, 2-(1-((1r,4r)-4-(Cyanomethyl)cyclohexyl)-1,6-dihydroimidazo[4,5-d]pyrrolo[2,3-b]pyridin-2-yl)-N-(cyclopropylmethyl)acetamide], the SIF solubility in data set [1] is above 400 µM. The concentration for half-maximal inhibition (IC50) was 0.2 nM on JAK1-JH1JH2; 6.2 nM on JAK2-JH1JH2; 82.8 nM on JAK3-JH1JH2; 11.6 nM at Tyk2-JH1JH2; 6.4 nM with IL-2 pSTAT5 (JAK1/JAK3).

In data set [1], `N#CCCNC(=O)Cc1nc2cnc3[nH]ccc3c2n1[C@H]1CC[C@H](CC#N)CC1` [Ex. 4, N-(2-Cyanoethyl)-2-(1-((1r,4r)-4-(cyanomethyl)cyclohexyl)-1,6-dihydroimidazo[4,5-d]pyrrolo[2,3-b]pyridin-2-yl)acetamide] gave an SIF solubility above 400 µM. Also, the IC50 at JAK1-JH1JH2 came to 0.1 nM; on JAK2-JH1JH2 it was 6.6 nM; at JAK3-JH1JH2, 96.2 nM; at Tyk2-JH1JH2, 2.2 nM; in the data set on IL-2 pSTAT5 (JAK1/JAK3) it was 35.5 nM.

`N#CC[C@H]1CC[C@H](n2c(CC(=O)NC3CCOCC3)nc3cnc4[nH]ccc4c32)CC1` [Ex. 5, 2-(1-((1r,4r)-4-(Cyanomethyl)cyclohexyl)-1,6-dihydroimidazo[4,5-d]pyrrolo[2,3-b]pyridin-2-yl)-N-(tetrahydro-2H-pyran-4-yl)acetamide]: the IC50 came to 0.3 nM on JAK1-JH1JH2; 2.1 nM at JAK2-JH1JH2; 23.1 nM on JAK3-JH1JH2; 4.1 nM at Tyk2-JH1JH2; 6.4 nM with IL-2 pSTAT5 (JAK1/JAK3).

Turning to `N#CC[C@H]1CC[C@H](n2c(CC(=O)NCC3CCOCC3)nc3cnc4[nH]ccc4c32)CC1` [Ex. 6, 2-(1-((1r,4r)-4-(Cyanomethyl)cyclohexyl)-1,6-dihydroimidazo[4,5-d]pyrrolo[2,3-b]pyridin-2-yl)-N-((tetrahydro-2H-pyran-4-yl)methyl)acetamide], the SIF solubility in data set [1] was above 400 µM. Further, the 50% inhibitory concentration (IC50) on JAK1-JH1JH2 was 0.1 nM; at JAK2-JH1JH2, 1.4 nM; at JAK3-JH1JH2 it was 28.2 nM; at Tyk2-JH1JH2, 1.1 nM; with IL-2 pSTAT5 (JAK1/JAK3), 6.7 nM.

In the case of `CC(C)(C#N)CNC(=O)Cc1nc2cnc3[nH]ccc3c2n1[C@H]1CC[C@H](CC#N)CC1` [Ex. 7, N-(2-Cyano-2-methylpropyl)-2-(1-((1r,4r)-4-(cyanomethyl)cyclohexyl)-1,6-dihydroimidazo[4,5-d]pyrrolo[2,3-b]pyridin-2-yl)acetamide], the IC50 at JAK1-JH1JH2 stood at 0.2 nM; on JAK2-JH1JH2, 5.6 nM; at JAK3-JH1JH2, 98.4 nM; at Tyk2-JH1JH2 it was 4.8 nM; in the data set with IL-2 pSTAT5 (JAK1/JAK3), 9.7 nM.

In data set [1], `N#CC[C@H]1CC[C@H](n2c(CC(=O)NCC3(O)CCC3)nc3cnc4[nH]ccc4c32)CC1` [Ex. 8, 2-(1-((1r,4r)-4-(Cyanomethyl)cyclohexyl)-1,6-dihydroimidazo[4,5-d]pyrrolo[2,3-b]pyridin-2-yl)-N-((1-hydroxycyclobutyl)methyl)acetamide] showed an SIF solubility above 400 µM. In addition, the half-inhibitory concentration (IC50) at JAK1-JH1JH2 came out at 0.4 nM; at JAK2-JH1JH2 it was 7 nM; on JAK3-JH1JH2 it was 75.6 nM; on Tyk2-JH1JH2, 6.6 nM; in the data set on IL-2 pSTAT5 (JAK1/JAK3), 20.6 nM.

In the case of `N#CCC12CCC(NC(=O)Cc3nc4cnc5[nH]ccc5c4n3[C@H]3CC[C@H](CC#N)CC3)(CC1)C2` [Ex. 10, N-(4-(Cyanomethyl)bicyclo[2.2.1]heptan-1-yl)-2-(1-((1r, 4r)-4-(cyanomethyl)cyclohexyl)-1,6-dihydroimidazo[4,5-d]pyrrolo[2,3-b]pyridin-2-yl)acetamide], the concentration for half-maximal inhibition (IC50) at JAK1-JH1JH2 was 1 nM; on JAK2-JH1JH2 it was 6.5 nM; on JAK3-JH1JH2 it was 87.5 nM; on Tyk2-JH1JH2, 9 nM; with IL-2 pSTAT5 (JAK1/JAK3), 16.8 nM.

As to `N#CC[C@H]1CC[C@H](n2c(CC(=O)NCC3(O)CC3)nc3cnc4[nH]ccc4c32)CC1` [Ex. 12, 2-(1-((1r,4r)-4-(Cyanomethyl)cyclohexyl)-1,6-dihydroimidazo[4,5-d]pyrrolo[2,3-b]pyridin-2-yl)-N-((1-hydroxycyclopropyl)methyl)acetamide], the SIF solubility in data set [1] was above 400 µM. Moreover, the concentration for half-maximal inhibition (IC50) on JAK1-JH1JH2 worked out at 0.9 nM; at JAK2-JH1JH2, 9.4 nM; at JAK3-JH1JH2, 101 nM; at Tyk2-JH1JH2, 8.7 nM; with IL-2 pSTAT5 (JAK1/JAK3), 13.9 nM.

The values are drawn from patent US10294226B2, “Small molecule inhibitors of the JAK family of kinases” (Janssen Pharmaceutica NV, priority 2016, dated 2019).
